Where “and” joins values, the source holds several entries; their conditions need not be identical. Equal entries are not always repeated.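 The compound was tested at five concentrations on cells cultured in 96-well plates, with a 48-hour exposure period. At the GI50, growth is halved. TGI is the concentration that stops growth completely.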
Legend:
Experiment in all cases: NCI tumour cell line growth inhibition, 48 h
LOX IMVI melanoma = system: LOX IMVI melanoma
UO-31 renal = system: UO-31 renal
MALME-3M melanoma = system: MALME-3M melanoma
NCI-H226 lung = system: NCI-H226 lung
SF-268 CNS = system: SF-268 CNS
A498 renal = system: A498 renal
SF-295 CNS = system: SF-295 CNS
NCI/ADR-RES ovarian = system: NCI/ADR-RES ovarian
SK-OV-3 ovarian = system: SK-OV-3 ovarian
SK-MEL-28 melanoma = system: SK-MEL-28 melanoma

SMILES | GI50 (LOX IMVI melanoma) | TGI (LOX IMVI melanoma) | GI50 (UO-31 renal) | TGI (UO-31 renal) | GI50 (MALME-3M melanoma) | TGI (MALME-3M melanoma) | GI50 (NCI-H226 lung) | TGI (NCI-H226 lung) | GI50 (SF-268 CNS) | TGI (SF-268 CNS) | GI50 (A498 renal) [µM] | TGI (A498 renal) | GI50 (SF-295 CNS) [µM] | TGI (SF-295 CNS) | GI50 (NCI/ADR-RES ovarian) [µM] | TGI (NCI/ADR-RES ovarian) | GI50 (SK-OV-3 ovarian) [µM] | TGI (SK-OV-3 ovarian) | GI50 (SK-MEL-28 melanoma) | TGI (SK-MEL-28 melanoma)
COC(=O)[C@H](CC(C)C)NC(=O)NC(=O)NC(=O)CI | 1.64 µM | 3.24 µM | 1.64 µM | 3.13 µM | 1.62 µM | 3.43 µM | 2.95 µM | 10 µM | 11.3 µM | 29.1 µM | 17.7 | 32.6 µM | 14.7 | 28.7 µM | 25.5 | 74.1 µM | 17.6 | 31.8 µM | 5.64 µM | 19.1 µM
O=C1c2ccccc2-c2c1c1ccccc1c(=O)n2CCCN1CCN(CCCn2c3c(c4ccccc4c2=O)C(=O)c2ccccc2-3)CC1 | > 88.3 µM | > 100 µM | > 45.7 µM | > 100 µM | > 57.6 µM | > 100 µM | > 76.5 µM | > 100 µM | 25 µM | > 100 µM | > 55.3 | > 100 µM | 12.6 | > 86.1 µM | > 100 | > 100 µM | > 100 | > 100 µM | > 100 µM | > 100 µM
CCOC(=O)C1=C(C)NC(=O)NC1c1coc2cc(C)cc(C)c2c1=O (stereo unspecified) | – | > 100 µM | – | > 100 µM | – | > 100 µM | – | > 100 µM | – | > 100 µM | – | > 100 µM | – | > 100 µM | – | > 100 µM | – | > 100 µM | – | > 100 µM
CCCCN(CCCC)CCCN=c1nc2c(c(N)n1-c1ccccc1)c(=S)n(-c1ccccc1)c(=S)n2-c1ccccc1 | 0.303 µM | 0.773 µM | 0.389 µM | 1.02 µM | 0.604 µM | 1.31 µM | 1.61 µM | 3.11 µM | 1.14 µM | 2.47 µM | 1.06 | 2.39 µM | 1.4 | 3 µM | 2.09 | 4.12 µM | 1.55 | 3.04 µM | 0.173 µM | 0.338 µM
Clc1ccc(-c2nn3ncccc3c2-c2ccnc(Nc3ccccc3)n2)cc1 | 9.23 µM | > 25 µM | 1.35 µM | > 16.1 µM | > 20.6 µM | > 25 µM | > 13.1 µM | > 25 µM | 11.5 µM | > 25 µM | 4.42 | > 23.3 µM | 9.67 | > 25 µM | 8.01 | > 25 µM | 6.55 | > 25 µM | > 22.2 µM | > 25 µM
C[C@H]1CC[C@@H]2[C@@H](C)[C@H]3[C@H](C[C@H]4[C@@H]5CC=C6C[C@@H](O)CC[C@]6(C)[C@H]5C[C@H](O)[C@]34C)N2C1 | – | > 100 µM | – | > 100 µM | – | > 100 µM | – | > 100 µM | – | > 100 µM | – | > 100 µM | – | > 100 µM | – | > 100 µM | – | > 100 µM | – | > 100 µM
CC[CH2][Sn]([Cl])([Cl])[CH2]CC | 2.8 µM | 11.4 µM | 4.47 µM | 19.5 µM | 1.55 µM | 4.91 µM | 4.02 µM | 16.5 µM | 9.63 µM | 22.5 µM | 1.54 | 3.62 µM | 17.2 | 33.4 µM | 15.8 | 30.7 µM | 25.7 | 70.8 µM | 11.4 µM | 23.7 µM
COc1ccc(C2=C(c3cc(OC)c(OC)c(OC)c3)C(=O)CC2)cc1 | 0.441 µM | > 100 µM | 3.75 µM | > 100 µM | > 100 µM | > 100 µM | 0.425 µM | > 22.6 µM | 0.668 µM | > 33.8 µM | 0.0403 | 0.429 µM | 0.0548 | > 20.5 µM | 0.0704 | > 100 µM | 0.179 | – | 0.489 µM | > 100 µM
N#CN1CCC[C@H]1C(=O)N1CCc2c(-c3[nH]nc4ncccc34)cccc21 | < 0.01 µM | 10.6 µM | 0.0431 µM | 5.11 µM | 0.0279 µM | 16.7 µM | 0.051 µM | 0.219 µM | < 0.01 µM | 13.2 µM | < 0.0114 | 0.148 µM | 0.281 | 4.41 µM | 0.0103 | > 31.7 µM | 0.013 | 0.0694 µM | < 0.01 µM | 13.9 µM
CC(=O)OC(C)(C)N=Nc1ccc(Br)cc1 | – | 33.7 µM | – | 15.9 µM | – | > 100 µM | – | > 50.5 µM | – | > 100 µM | – | > 100 µM | – | > 60.1 µM | – | 76.7 µM | – | > 100 µM | – | > 100 µM
CN(C)CCCNc1nccc(-c2c(-c3ccc(F)cc3)nn3cc(C(F)(F)F)ccc23)n1 | 5.06 µM | 15.2 µM | 2.91 µM | > 25 µM | 4.32 µM | 9.36 µM | 3.72 µM | 11.2 µM | 9.79 µM | > 25 µM | 6.53 | > 25 µM | 6.91 | > 17.2 µM | 8.48 | > 25 µM | 20.1 | > 25 µM | 4.29 µM | 8.49 µM
CCC1CC(=O)N(SCC(N)C(=O)O)C1=O (stereo unspecified) | – | > 100 µM | – | > 100 µM | – | > 100 µM | – | > 100 µM | – | > 100 µM | – | > 100 µM | – | > 100 µM | – | > 100 µM | – | > 100 µM | – | > 100 µM
O=C(c1cccs1)c1c(C(F)(F)F)n([O-])c2ccc(F)cc2[n+]1=O | 0.971 µM | 2.67 µM | 1.3 µM | 2.58 µM | 0.669 µM | 2.25 µM | 1.76 µM | 3.39 µM | – | – | 1.95 | 4.08 µM | 1.76 | 3.58 µM | 2.36 | 6.33 µM | 1.85 | 3.59 µM | 1.52 µM | 2.86 µM
O=C1/C(=C/c2ccccc2)CCC/C1=C\c1ccccc1 | 3.83 µM and 1.52 µM | 8.65 µM and 5.92 µM and 3.64 µM | 6.04 µM and 12.5 µM | 11 µM and 32.3 µM and 28 µM | 6.54 µM and 21 µM | 11.9 µM and 33.3 µM and 59.7 µM | 7.83 µM and 12.5 µM | 13.8 µM and 35.1 µM and 33 µM | 6.72 µM and 5.81 µM | 13.3 µM and 29.5 µM and 20.3 µM | – | 29.8 µM and 29.2 µM | 7.49 | 13.6 µM and 26.5 µM | 17.5 | 17.1 µM and 95.5 µM | 6.28 | 12 µM and 43.1 µM and 46.7 µM | 6.84 µM and 18.9 µM | 12.3 µM and 32.7 µM and 38.2 µM

From PubChem BioAssay (NCI)
